Measured values as given in publication PMC8151276, “An Integrated Approach toward NanoBRET Tracers for Analysis of GPCR Ligand Engagement” (Molecules, 2021).

Tests used:
Assay type in all cases: binding
RXFP2 = molecular target: T1, RXFP2 (Homo sapiens, UniProt Q8WXD0); experiment: NanoBRET screen HiBiT-RXFP2 in HEK293
T1 construct: purchased Promega (in-house HiBiT-GPCR construct library, NanoBRET)
Protocol: (§1) Each tracer candidate was screened across the entire library of HiBiT-GPCR constructs using NanoBRET as the detection modality. As depicted in Figure 4A, the specificity of interactions was evaluated through decrease in BRET due to competitive displacement of a bound tracer by excess parental compound. Each tracer was analyzed for binding to each HiBiT-GPCR fusion in the absence and in the presence of competing parental compound. Briefly, HEK293 cells were transfected with HiBiT-GPCR constructs diluted into promoterless DNA to reduce expression and maximize translocation to the cell surface. Each tracer candidate was then screened at concentrations of 1 μM and 0.1 μM across cells expressing these fusions. Cells were treated for 1.5 h with tracer either alone or in the presence of 20 μM competing parental compound (i.e., control). BRET was measured upon addition of purified LgBiT and subsequent complementation with HiBiT genetically fused to a GPCR. The specificity of interactions was assessed through a decrease in BRET signal due to competitive displacement of the bound tracer. To further gauge the robustness of these interactions, the fold response over the control (i.e., BRETtracer/BRETcontrol) was calculated. We chose a 1.5-fold response, which translates to ≥7-fold signal over noise as the minimal threshold required to score an interaction as positive. […]. Below we highlight the screening results obtained for our exemplary fluorescent tracers based on Clozapine, Amitriptyline and AZD1283.
(§2) HiBiT-GPCR DNA constructs were diluted in 10 mM Tris pH 8 to a final concentration of 0.01 μg/μL, arrayed in 96-well plates and stored at −20 °C. For transfection, HEK293 cells were suspended in Opti-MEM (without phenol red) supplemented with 2% fetal bovine serum (Seradigm) and 100 units/mL penicillin–streptomycin (Gibco) at a final concentration of 220,000 cells/mL and dispensed into white 96-well plates at 90 μL/well. Subsequent transfections and screens were carried using an Agilent Bravo Automated Liquid Handling Platform. First, the 96-well HiBiT DNA arrays were diluted 25-fold in Opti-MEM (without serum or phenol red) to a final concentration of 0.0004 μg/μL and 20 μL of the diluted DNAs were transferred into new 96-well plates. Next, promoterless carrier DNA (1 μg/μL) was diluted 25-fold (0.04 μg/μL) and then dispensed into the diluted arrays at 20 μL/well. Following brief mixing, Viafect transfection reagent (Promega) diluted 16-fold into Opti-MEM was dispensed into the plates at 40 μL/well. After mixing by pipetting, plates were incubated for 10 min on the pipetting station deck. The DNA-transfection reagent complexes were then added to plates containing cells. To facilitate the screen, 10 μL of DNA-transfection reagent complexes were added in duplicates to the top 4 and bottom 4 rows, resulting in two identical 48-well arrays per plate. Plates with transfected cells were incubated for 18–20 h at 37 °C/5% CO2. A screen of each tracer across the entire library using two different concentrations requires duplicate plates of transfected cells. Depending on the number of tracers being screened, transfections can be scaled up using the same ratios. The next day, for each tracer, four 20× screening solutions in tracer dilution buffer (Promega) were prepared: two duplicates at final concentration of 20 μM and two duplicates at a final concentration of 2 μM. A competing unmodified compound was added to one of each duplicate at a final concentration of 400 μM. The four resulting solutions were diluted 4-fold in Opti-MEM without serum or phenol red to generate 5× solutions (5 µM and 0.5 µM tracer +/− 100 μM competing compound). To screen the library, a BioTek MultiFlo FX liquid dispenser was used to dispense 22.5 µL of tracer solution to the top 4 rows and 22.5 µL tracer + competing compound solution to the 4 bottom rows. Plates were briefly mixed on an orbital shaker and incubated for 1.5 h at room temperature. […]

PTAFR = molecular target: T2, PTAFR (Homo sapiens, UniProt P25105); experiment: NanoBRET screen HiBiT-PTAFR in HEK293
T2 construct: purchased Promega (in-house HiBiT-GPCR construct library, NanoBRET)
Protocol: as §1, §2

GRM1 = molecular target: T3, GRM1 (Homo sapiens, UniProt Q13255); experiment: NanoBRET screen HiBiT-GRM1 in HEK293
T3 construct: purchased Promega (in-house HiBiT-GPCR construct library, NanoBRET)
Protocol: as §1, §2

FZD2 = molecular target: T4, FZD2 (Homo sapiens, UniProt Q14332); experiment: NanoBRET screen HiBiT-FZD2 in HEK293
T4 construct: purchased Promega (in-house HiBiT-GPCR construct library, NanoBRET)
Protocol: as §1, §2

GRPR = molecular target: T5, GRPR (Homo sapiens, UniProt P30550); experiment: NanoBRET screen HiBiT-GRPR in HEK293
T5 construct: purchased Promega (in-house HiBiT-GPCR construct library, NanoBRET)
Protocol: as §1, §2

PTGER4 = molecular target: T6, PTGER4 (Homo sapiens, UniProt P35408); experiment: NanoBRET screen HiBiT-PTGER4 in HEK293
T6 construct: purchased Promega (in-house HiBiT-GPCR construct library, NanoBRET)
Protocol: as §1, §2

CCR1 = molecular target: T7, CCR1 (Homo sapiens, UniProt P32246); experiment: NanoBRET screen HiBiT-CCR1 in HEK293
T7 construct: purchased Promega (in-house HiBiT-GPCR construct library, NanoBRET)
T7 sequence (P32246 1-355): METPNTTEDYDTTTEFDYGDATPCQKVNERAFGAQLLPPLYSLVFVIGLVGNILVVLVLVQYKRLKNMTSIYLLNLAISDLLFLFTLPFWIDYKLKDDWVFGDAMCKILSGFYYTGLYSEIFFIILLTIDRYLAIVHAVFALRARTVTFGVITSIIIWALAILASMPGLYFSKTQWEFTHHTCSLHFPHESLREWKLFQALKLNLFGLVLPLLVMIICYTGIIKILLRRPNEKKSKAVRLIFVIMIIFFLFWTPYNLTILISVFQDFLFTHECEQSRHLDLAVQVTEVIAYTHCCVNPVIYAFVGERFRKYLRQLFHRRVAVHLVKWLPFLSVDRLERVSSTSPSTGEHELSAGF
Protocol: as §1, §2

T4 sequence (Q14332 24-565): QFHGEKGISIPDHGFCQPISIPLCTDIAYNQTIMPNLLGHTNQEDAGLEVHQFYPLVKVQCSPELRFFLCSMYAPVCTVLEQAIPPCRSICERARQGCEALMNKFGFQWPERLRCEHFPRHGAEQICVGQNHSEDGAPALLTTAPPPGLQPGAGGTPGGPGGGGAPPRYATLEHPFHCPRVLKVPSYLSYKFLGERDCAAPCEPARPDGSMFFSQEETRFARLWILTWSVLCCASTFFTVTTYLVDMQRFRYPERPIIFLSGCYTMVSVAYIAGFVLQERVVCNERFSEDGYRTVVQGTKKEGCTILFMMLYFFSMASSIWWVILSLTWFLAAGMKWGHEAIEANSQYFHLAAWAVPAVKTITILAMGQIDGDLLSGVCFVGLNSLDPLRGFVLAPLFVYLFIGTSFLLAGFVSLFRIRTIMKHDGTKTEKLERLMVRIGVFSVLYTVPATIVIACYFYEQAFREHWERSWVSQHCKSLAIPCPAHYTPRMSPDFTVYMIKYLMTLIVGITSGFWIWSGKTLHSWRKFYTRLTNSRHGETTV
T2 sequence (P25105 whole entry): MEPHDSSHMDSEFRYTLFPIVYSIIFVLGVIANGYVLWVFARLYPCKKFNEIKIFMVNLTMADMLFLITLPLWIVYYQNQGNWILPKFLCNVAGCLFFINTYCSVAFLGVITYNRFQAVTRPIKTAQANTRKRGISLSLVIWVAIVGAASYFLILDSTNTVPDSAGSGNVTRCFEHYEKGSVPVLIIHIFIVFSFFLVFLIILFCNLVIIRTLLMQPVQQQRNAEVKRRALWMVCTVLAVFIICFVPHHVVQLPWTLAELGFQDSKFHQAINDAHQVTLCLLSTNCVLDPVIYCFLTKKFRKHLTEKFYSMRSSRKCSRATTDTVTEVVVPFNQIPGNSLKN
T5 sequence (P30550 whole entry): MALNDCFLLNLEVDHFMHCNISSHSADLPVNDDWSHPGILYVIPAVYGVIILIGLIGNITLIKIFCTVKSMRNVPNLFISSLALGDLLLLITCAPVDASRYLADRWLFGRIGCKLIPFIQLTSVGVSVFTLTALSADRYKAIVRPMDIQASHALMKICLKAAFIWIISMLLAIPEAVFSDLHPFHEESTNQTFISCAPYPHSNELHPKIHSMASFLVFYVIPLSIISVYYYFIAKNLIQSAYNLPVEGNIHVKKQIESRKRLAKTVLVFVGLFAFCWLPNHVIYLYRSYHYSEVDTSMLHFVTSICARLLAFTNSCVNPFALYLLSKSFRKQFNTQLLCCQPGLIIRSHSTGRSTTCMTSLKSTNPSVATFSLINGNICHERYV
T6 sequence (P35408 whole entry): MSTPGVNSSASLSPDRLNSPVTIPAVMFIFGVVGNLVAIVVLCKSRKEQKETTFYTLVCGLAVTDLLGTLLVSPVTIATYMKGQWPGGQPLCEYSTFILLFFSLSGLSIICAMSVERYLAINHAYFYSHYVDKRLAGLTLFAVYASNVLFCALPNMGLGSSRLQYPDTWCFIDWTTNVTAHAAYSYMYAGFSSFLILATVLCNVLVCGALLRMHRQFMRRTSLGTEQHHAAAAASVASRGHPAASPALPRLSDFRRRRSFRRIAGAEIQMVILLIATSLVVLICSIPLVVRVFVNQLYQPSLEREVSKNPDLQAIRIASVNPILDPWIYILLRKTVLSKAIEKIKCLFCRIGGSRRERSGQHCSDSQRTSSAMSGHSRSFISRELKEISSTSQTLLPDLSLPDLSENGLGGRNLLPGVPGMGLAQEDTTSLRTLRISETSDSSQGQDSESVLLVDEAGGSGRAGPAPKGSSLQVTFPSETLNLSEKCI
T1 sequence (Q8WXD0 whole entry): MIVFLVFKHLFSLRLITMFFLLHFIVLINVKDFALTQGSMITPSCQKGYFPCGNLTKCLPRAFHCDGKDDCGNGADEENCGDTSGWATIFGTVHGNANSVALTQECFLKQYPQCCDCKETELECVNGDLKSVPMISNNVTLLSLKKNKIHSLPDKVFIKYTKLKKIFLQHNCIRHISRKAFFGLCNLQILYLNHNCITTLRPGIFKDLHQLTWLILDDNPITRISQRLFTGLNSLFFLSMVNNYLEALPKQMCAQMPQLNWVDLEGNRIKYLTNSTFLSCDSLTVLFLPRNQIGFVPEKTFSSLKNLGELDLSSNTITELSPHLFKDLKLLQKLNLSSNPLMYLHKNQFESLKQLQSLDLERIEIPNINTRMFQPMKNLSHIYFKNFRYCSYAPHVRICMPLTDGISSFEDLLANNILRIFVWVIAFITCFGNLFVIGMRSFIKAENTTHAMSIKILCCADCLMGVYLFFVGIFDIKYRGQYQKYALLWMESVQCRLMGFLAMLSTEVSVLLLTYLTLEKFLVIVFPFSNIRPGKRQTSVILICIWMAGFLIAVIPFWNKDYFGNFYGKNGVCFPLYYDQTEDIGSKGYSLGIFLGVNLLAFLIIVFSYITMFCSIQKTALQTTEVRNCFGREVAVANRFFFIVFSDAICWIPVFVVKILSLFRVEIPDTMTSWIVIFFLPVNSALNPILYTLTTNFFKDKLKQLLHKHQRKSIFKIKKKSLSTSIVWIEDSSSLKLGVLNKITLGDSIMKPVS
T3 sequence (Q13255 19-1194): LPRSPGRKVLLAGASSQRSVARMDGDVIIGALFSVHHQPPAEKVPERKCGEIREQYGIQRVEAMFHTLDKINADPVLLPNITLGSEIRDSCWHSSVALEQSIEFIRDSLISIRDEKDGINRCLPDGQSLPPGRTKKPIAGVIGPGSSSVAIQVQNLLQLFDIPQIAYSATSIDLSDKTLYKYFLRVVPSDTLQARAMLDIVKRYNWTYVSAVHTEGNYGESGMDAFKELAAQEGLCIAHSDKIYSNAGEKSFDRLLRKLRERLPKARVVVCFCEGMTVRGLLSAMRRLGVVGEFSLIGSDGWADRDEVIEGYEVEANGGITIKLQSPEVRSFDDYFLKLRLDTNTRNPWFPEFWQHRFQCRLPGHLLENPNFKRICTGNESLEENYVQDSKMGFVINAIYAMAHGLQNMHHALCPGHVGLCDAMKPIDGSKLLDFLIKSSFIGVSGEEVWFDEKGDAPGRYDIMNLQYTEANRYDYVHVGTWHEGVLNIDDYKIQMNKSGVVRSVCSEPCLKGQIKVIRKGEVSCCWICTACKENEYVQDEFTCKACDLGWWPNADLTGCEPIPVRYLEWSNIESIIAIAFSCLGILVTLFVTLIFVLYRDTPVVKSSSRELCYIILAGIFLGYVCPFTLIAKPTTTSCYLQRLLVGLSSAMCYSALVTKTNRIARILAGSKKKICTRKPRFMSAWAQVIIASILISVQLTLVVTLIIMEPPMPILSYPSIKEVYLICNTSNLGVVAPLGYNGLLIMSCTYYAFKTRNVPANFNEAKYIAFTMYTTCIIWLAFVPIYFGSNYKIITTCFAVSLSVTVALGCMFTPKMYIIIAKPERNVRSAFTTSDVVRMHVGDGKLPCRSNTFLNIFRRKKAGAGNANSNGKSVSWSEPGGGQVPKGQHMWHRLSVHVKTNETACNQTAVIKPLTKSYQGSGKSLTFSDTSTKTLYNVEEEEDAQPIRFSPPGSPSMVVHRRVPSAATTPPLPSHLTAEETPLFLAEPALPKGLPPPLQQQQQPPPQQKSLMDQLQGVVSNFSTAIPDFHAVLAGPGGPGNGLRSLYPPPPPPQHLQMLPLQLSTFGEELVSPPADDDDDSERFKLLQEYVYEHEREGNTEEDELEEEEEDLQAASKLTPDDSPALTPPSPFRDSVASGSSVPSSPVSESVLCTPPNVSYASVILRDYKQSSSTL

Compound	NanoBRET Fold Response (RXFP2; RXFP2, tracer 0.1μM)	NanoBRET Fold Response (RXFP2; RXFP2, tracer 1μM)	NanoBRET Fold Response (PTAFR; PTAFR, tracer 0.1μM)	NanoBRET Fold Response (PTAFR; PTAFR, tracer 1μM)	NanoBRET Fold Response (GRM1; GRM1, tracer 0.1μM)	NanoBRET Fold Response (GRM1; GRM1, tracer 1μM)	NanoBRET Fold Response (FZD2; FZD2, tracer 0.1μM)	NanoBRET Fold Response (FZD2; FZD2, tracer 1μM)	NanoBRET Fold Response (GRPR; GRPR, tracer 0.1μM)	NanoBRET Fold Response (GRPR; GRPR, tracer 1μM)	NanoBRET Fold Response (PTGER4; PTGER4, tracer 0.1μM)	NanoBRET Fold Response (PTGER4; PTGER4, tracer 1μM)	NanoBRET Fold Response (CCR1; CCR1, tracer 0.1μM)	NanoBRET Fold Response (CCR1; CCR1, tracer 1μM)	other results
CCCn1c(=O)c2[nH]c(-c3ccc(OCC(=O)NCCNC(=O)CCOCCNC(=O)c4ccc(CNC(=O)CCc5ccc6n5[B-](F)(F)[N+]5=C(c7ccc[nH]7)C=CC5=C6)cc4)cc3)nc2n(CCC)c1=O [XAC-3-NB590]	1.20	1.28	0.90	1.15	0.63	0.80	1.09	1.04	1.24	1.01	1.15	1.01	0.83	1.09	
COc1ccccc1N1CCN(CCCCN2C(=O)c3ccc(CNC(=O)CCOCCNC(=O)c4ccc(CNC(=O)CCc5ccc6n5[B-](F)(F)[N+]5=C(c7ccc[nH]7)C=CC5=C6)cc4)cc3C2=O)CC1 [NAN-190-3-NB590]	0.63	0.89	1.05	1.30	1.03	1.12	0.88	1.44	0.87	0.94	1.00	0.97	1.04	0.89	
O=C(CCc1ccc2n1[B-](F)(F)[N+]1=C(c3ccc[nH]3)C=CC1=C2)NCc1ccc(C(=O)NCCOCCOCCNCC(O)COc2cccc3ccccc23)cc1 (centres unmarked) [Propranolol-3-NB590]															NanoBRET Fold Response (RXFP2; RXFP2, 0.1μM): 0.27; NanoBRET Fold Response (RXFP2; RXFP2, 1μM): 0.78; NanoBRET Fold Response (PTAFR; PTAFR, 0.1μM): 1.02; NanoBRET Fold Response (PTAFR; PTAFR, 1μM): 1.04; NanoBRET Fold Response (GRM1; GRM1, 0.1μM): 0.72; NanoBRET Fold Response (GRM1; GRM1, 1μM): 0.69; NanoBRET Fold Response (FZD2; FZD2, 0.1μM): 0.97; NanoBRET Fold Response (FZD2; FZD2, 1μM): 1.01; NanoBRET Fold Response (GRPR; GRPR, 0.1μM): 0.99; NanoBRET Fold Response (GRPR; GRPR, 1μM): 1.03; NanoBRET Fold Response (PTGER4; PTGER4, 0.1μM): 1.04; NanoBRET Fold Response (PTGER4; PTGER4, 1μM): 1.06; NanoBRET Fold Response (CCR1; CCR1, 0.1μM): 1.03; NanoBRET Fold Response (CCR1; CCR1, 1μM): 0.97
COc1ccc2c(n1)c(CCNC(C)=O)cn2CCNC(=O)CCc1ccc2n1[B-](F)(F)[N+]1=C(c3ccc[nH]3)C=CC1=C2 [Azamelatonin-1-NB590]															NanoBRET Fold Response (RXFP2; 0.1μM tracer): 1.10; NanoBRET Fold Response (RXFP2; 1μM tracer): 1.34; NanoBRET Fold Response (PTAFR; 0.1μM tracer): 1.05; NanoBRET Fold Response (PTAFR; 1μM tracer): 1.05; NanoBRET Fold Response (GRM1; 0.1μM tracer): 1.27; NanoBRET Fold Response (GRM1; 1μM tracer): 0.47; NanoBRET Fold Response (FZD2; 0.1μM tracer): 0.95; NanoBRET Fold Response (FZD2; 1μM tracer): 0.95; NanoBRET Fold Response (GRPR; 0.1μM tracer): 1.00; NanoBRET Fold Response (GRPR; 1μM tracer): 1.08; NanoBRET Fold Response (PTGER4; 0.1μM tracer): 1.06; NanoBRET Fold Response (PTGER4; 1μM tracer): 0.96; NanoBRET Fold Response (CCR1; 0.1μM tracer): 0.90; NanoBRET Fold Response (CCR1; 1μM tracer): 1.04
O=C(CCOCCOCCOCCOCCNC(=O)CCc1ccc2n1[B-](F)(F)[N+]1=C(c3ccc[nH]3)C=CC1=C2)NCCCN1CCN(C2=Nc3ccccc3Oc3ccc(Cl)cc32)CC1 [Loxapine-a-2-NB590]	0.94	0.64	1.10	1.09	0.93	0.59	1.07	1.05	1.17	1.09	0.97	1.07	1.00	0.99	
COc1ccccc1N1CCN(CCCCN2C(=O)c3ccc(CNC(=O)CCOCCOCCOCCOCCNC(=O)CCc4ccc5n4[B-](F)(F)[N+]4=C(c6ccc[nH]6)C=CC4=C5)cc3C2=O)CC1 [NAN-190-2-NB590]	0.78	1.17	1.03	1.04	0.35	0.92	0.97	1.02	0.99	0.92	1.02	1.01	1.01	1.04	
CC(C)N(CC[C@H](c1ccccc1)c1cc(CCNC(=O)c2ccc(CNC(=O)CCc3ccc4n3[B-](F)(F)[N+]3=C(c5ccc[nH]5)C=CC3=C4)cc2)ccc1O)C(C)C [Tolterodine-BZ-NB590]	0.34	0.83	0.93	0.85	0.88	0.19	0.95	1.01	0.81	0.99	1.02	1.04	1.09	0.96	
